From US20070154882A1, “Beta-polypeptides that inhibit cytomegalovirus infection” (priority 2005, published 2007)

Assays:
[1] = tested on: HCMV membrane fusion (nuclear localization of pp65) in NHDF cells; test: pp65 translocation (virion content delivery) assay; format: cell-based; conditions: HCMV diluted with 100 µM beta-peptide; 4° C. 90 min, then 37° C. 35 min
Experimental: NHDF cells were grown on glass cover-slips in 12-well plates as above. The HCMV was diluted with 100 µM beta-peptide in SF-DMEM and cooled to 4° C. The treatment was then added to cooled cells, which were incubated at 4° C. for 90 min, assuring viral attachment but not entry. The cells were then transferred to 37° C. for 35 min. The cells were then fixed in 3% paraformaldehyde and immunostained for pp65 as described (Lopper, M.; Compton, T. (2004) in J. Virol. Vol. 78, pp. 8333-8341). Images were taken on the Nikon Eclipse TE2000-S with appropriate filters, using consistent exposure times.
The infectivity assays used in these Examples measures immediate early gene expression; immediate early (IE) proteins are the first viral proteins expressed in infected cells. Inhibition of viral gene expression could reflect interference at a variety of points in the virus life cycle such as inhibition of IE gene transcription or translation. A virion content delivery assay was performed to test whether the beta-peptides act at the viral entry stage, as they have been designed to do. Immediately upon membrane fusion, the phosphoprotein-rich tegument layer of the virus is released into the cytoplasm of the target cell. The pp65 protein, highly abundant in the virion tegument, diffuses rapidly to the nucleus after membrane fusion. […]

Row | Compound | Cytotoxicity, as indicated by P1 uptake (NHDF cells) | further results
1 | CC(=O)NC[C@H](Cc1ccc(O)cc1)C(=O)NC1CCCC1C(=O)NC1CNCC1C(=O)NC1CNCC1C(=O)N[C@H](CC(=O)NC1CNCC1C(=O)NC1CNCC1C(=O)NC1CCCC1C(=O)NC[C@H](CC(C)C)C(=O)NC1CNCC1C(=O)NC1CCCC1C(=O)N[C@H](CC(=O)N[C@H](CC(N)=O)Cc1ccccc1)C(C)C)CC(C)C (some centres unmarked) [ERP-II-005] | – | disruption of cell membranes (human red blood cells): does not simply disrupt cell membranes; toxicity toward fibroblasts (NHDF cells): highly toxic
2 | CNC(=O)C[C@H](C)NC(=O)COC(=O)[C@H]1CCCN1C(=O)CC(Cc1ccccc1)NC(C)=O (some centres unmarked) | – | melting point: 128 to 129 °C
3 | CC(=O)NC1CCCC1C(=O)N[C@H](CC(=O)NC1CCCC1C(=O)NC[C@H](CC(C)C)C(=O)NC1CNCC1C(=O)NC1CNCC1C(=O)N[C@H](CC(=O)NC1CCCC1C(=O)NC[C@H](Cc1ccc(O)cc1)C(=O)NC1CNCC1C(=O)NC1CNCC1C(=O)N[C@H](CC(=O)NC1CNCC1C(N)=O)Cc1cccc2ccccc12)Cc1ccccc1)CC(C)C (some centres unmarked) [EPE-II-227] | Toxic | –
4 | CC(=O)NC1CCCC1C(=O)N[C@H](CC(=O)NC1CCCC1C(=O)NC[C@H](CC(C)C)C(=O)NC1CNCC1C(=O)NC1CNCC1C(=O)N[C@H](CC(=O)NC1CCCC1C(=O)NC[C@H](Cc1ccc(O)cc1)C(=O)NC1CNCC1C(=O)NC1CNCC1C(=O)N[C@H](CC(=O)NC1CNCC1C(N)=O)C(C)C)Cc1ccc2ccccc2c1)CC(C)C (some centres unmarked) [EPE-II-231] | Toxic | –
5 | CC(=O)NC1CCCC1C(=O)N[C@H](CC(=O)NC1CCCC1C(=O)NC[C@H](CC(C)C)C(=O)NC1CNCC1C(=O)NC1CNCC1C(=O)N[C@H](CC(=O)NC1CCCC1C(=O)NC[C@H](Cc1ccc(O)cc1)C(=O)NC1CNCC1C(=O)NC1CNCC1C(=O)N[C@H](CC(=O)NC1CNCC1C(N)=O)Cc1ccc2ccccc2c1)Cc1ccccc1)CC(C)C (some centres unmarked) [EPE-II-225] | Toxic | –
6 | CC(=O)NC1CCCC1C(=O)N[C@H](CC(=O)NC1CCCC1C(=O)NC[C@H](CC(C)C)C(=O)NC1CNCC1C(=O)NC1CNCC1C(=O)N[C@H](CC(=O)NC1CCCC1C(=O)NC[C@H](Cc1ccc(O)cc1)C(=O)NC1CNCC1C(=O)NC1CNCC1C(=O)N[C@H](CC(=O)NC1CNCC1C(N)=O)C(C)C)Cc1cccc2ccccc12)CC(C)C (some centres unmarked) [EPE-II-233] | Toxic | –
7 | heparin | – | nuclear localization of pp65 [1]: eliminates pp65 accumulation in the nucleus
